These results are taken from patent publication US9862717B2 (Merck Patent GmbH, priority 2014, dated 2018).

The assay concerns the target T1, CDK8/CycC (Homo sapiens, UniProt P49336).
T1 construct: purchased Invitrogen PV4402
The assay is described as follows: FRET based Lanthascreen binding competition assay for CDK8 inhibitory activity. The following applies: CDK8 co-expressed with CycC, class symbols. The text has this: Biochemical Assay for CDK8 Inhibitory Activity FRET based Lanthascreen binding competition assay: A dye-labeled ATP competitive probe served as a FRET acceptor upon binding to CDK8 labeled with a strepavidin -Eu-chelate (via a biotinylated anti His antibody). The result was a fluorescence signal at 647 nm. In case this probe was competed by an inhibitor, such a signal cannot be generated any more. The CDK8 used for this assay was a protein co-expressed with CycC. The assay procedure for an assay in a 1536 well plate was performed according to the following: 2 μL CDK8/biotin-anti-His Ab/SA-Eu mix in Assay buffer were pipetted into the wells of a micro plate. 1 μL compound in 20 mM Hepes buffer/5% DMSO was added. The plate was shaken for 30 sec and incubated for 20 min at RT. 2 μL Alexa647-probe in assay buffer were added. The plate was shaken for 30 sec again and incubated for 60 min at RT in the dark. Then the plate was read out on a Perkin Elmer Envision (mode LANCE/TRF, excitation 340 nm emission 650 nm). […] The readouts were fitted to IC50 curves using Genedata Condoseo.
In general terms: Time-resolved FRET reads energy transfer from a long-lived donor to a nearby acceptor.

The term IC50 denotes the concentration at which inhibition is half-maximal.

Each structure is given as a SMILES string. Where two headings read alike, the source gives them in different places. A value given as a limit tells only on which side of the number the result lay.

T1 sequence (P49336 whole entry): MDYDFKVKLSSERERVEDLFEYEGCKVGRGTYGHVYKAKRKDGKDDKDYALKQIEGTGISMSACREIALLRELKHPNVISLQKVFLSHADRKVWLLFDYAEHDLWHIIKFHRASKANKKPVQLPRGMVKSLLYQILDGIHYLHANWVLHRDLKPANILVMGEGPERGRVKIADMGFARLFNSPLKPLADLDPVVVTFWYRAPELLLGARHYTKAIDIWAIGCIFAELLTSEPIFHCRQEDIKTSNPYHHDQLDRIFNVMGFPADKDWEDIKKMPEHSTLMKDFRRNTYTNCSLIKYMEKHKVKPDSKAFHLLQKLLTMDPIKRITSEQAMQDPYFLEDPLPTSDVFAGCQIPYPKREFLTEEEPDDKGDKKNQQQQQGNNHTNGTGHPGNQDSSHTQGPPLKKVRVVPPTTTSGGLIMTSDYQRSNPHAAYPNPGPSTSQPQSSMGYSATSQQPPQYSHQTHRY
T1 sequence (P24863 whole entry partner): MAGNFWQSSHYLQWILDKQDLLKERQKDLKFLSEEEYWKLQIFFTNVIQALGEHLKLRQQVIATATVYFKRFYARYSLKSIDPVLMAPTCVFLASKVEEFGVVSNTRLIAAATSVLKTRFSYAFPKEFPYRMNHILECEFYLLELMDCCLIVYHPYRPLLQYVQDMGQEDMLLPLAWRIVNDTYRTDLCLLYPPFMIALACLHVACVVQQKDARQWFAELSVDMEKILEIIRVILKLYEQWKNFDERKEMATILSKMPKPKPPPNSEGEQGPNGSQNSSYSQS

Take `Cc1n[nH]c2ncc(C(=O)N3CCCC[C@H]3c3ccc(F)cc3)cc12` [compound 17, [(S)-2-(4-Fluoro-phenyl)-piperidin-1-yl]-(3-methyl-1H-pyrazolo[3,4-b]pyridin-5-yl)-methanone]: the IC50 (read-out: IC50) was 0.01 to 0.1 µM.
As for `Cc1n[nH]c2ncc(C(=O)N3CCCCC3c3ccccc3)cc12` (stereo not shown) [compound 18, (3-Methyl-1H-pyrazolo[3,4-b]pyridin-5-yl)-(2-phenyl-piperidin-1-yl)-methanone], the IC50 (read-out: IC50) fell in the range of 0.01 to 0.1 µM.
On the same count and under the same terms, with `Cc1n[nH]c2ncc(C(=O)N3CCCCC3Cc3ccccc3)cc12` (stereo not shown) [compound 19, (2-Benzyl-piperidin-1-yl)-(3-methyl-1H-pyrazolo[3,4-b]pyridin-5-yl)-methanone] the figure was 0.1 to 1 µM.
`Cc1n[nH]c2ncc(C(=O)N3CCCC3c3ccccc3)cc12` (stereo not shown) [compound 20, (3-Methyl-1H-pyrazolo[3,4-b]pyridin-5-yl)-(2-phenyl-pyrrolidin-1-yl)-methanone]: the IC50 (read-out: IC50) is less than 0.01 µM.
Same read-out and setting: the figure for `Cc1n[nH]c2ncc(C(=O)N3CCCC3c3cccc(Cl)c3)cc12` (stereo not shown) [compound 21, [2-(3-Chloro-phenyl)-pyrrolidin-1-yl]-(3-methyl-1H-pyrazolo[3,4-b]pyridin-5-yl)-methanone] is 0.01 to 0.1 µM; for `Cc1n[nH]c2ncc(C(=O)N3CCC(c4ccccc4)C3)cc12` (stereo not shown) [compound 22, (3-Methyl-1H-pyrazolo[3,4-b]pyridin-5-yl)-(3-phenyl-pyrrolidin-1-yl)-methanone] it is 0.01 to 0.1 µM.
Same read-out and setting: with `Cc1n[nH]c2ncc(C(=O)N3CCCC3c3ccccc3Cl)cc12` (stereo not shown) [compound 23, [2-(2-Chloro-phenyl)-pyrrolidin-1-yl]-(3-methyl-1H-pyrazolo[3,4-b]pyridin-5-yl)-methanone] the figure was 0.01 to 0.1 µM.
On the same count and under the same terms, the figure for `Cc1n[nH]c2ncc(C(=O)N3CCCC[C@H]3Cc3ccccc3)cc12` [compound 24, ((S)-2-Benzyl-piperidin-1-yl)-(3-methyl-1H-pyrazolo[3,4-b]pyridin-5-yl)-methanone] is 0.1 to 1 µM; for `Cc1n[nH]c2ncc(C(=O)N3CCCC3c3ccc(F)cc3)cc12` (stereo not shown) [compound 26, [2-(4-Fluoro-phenyl)-pyrrolidin-1-yl]-(3-methyl-1H-pyrazolo[3,4-b]pyridin-5-yl)-methanone] it is less than 0.01 µM.
As to `Cc1n[nH]c2ncc(C(=O)N3CCCC[C@H]3c3ccccc3)cc12` [compound 28, (3-Methyl-1H-pyrazolo[3,4-b]pyridin-5-yl)-((S)-2-phenyl-piperidin-1-yl)-methanone], the IC50 (read-out: IC50) was in the range of 0.01 to 0.1 µM.
The same measure, in the same setting: with `Cc1n[nH]c2ncc(C(=O)N3CCCC3c3ccccn3)cc12` (stereo not shown) [compound 30, (3-Methyl-1H-pyrazolo[3,4-b]pyridin-5-yl)-(2-pyridin-2-yl-pyrrolidin-1-yl)-methanone] the figure was 0.1 to 1 µM.
The same measure, in the same setting: the figure for `CC(C)Cc1n[nH]c2ccc(C(=O)N3CCC[C@H]3c3ccc(Cl)cc3)cc12` [compound 31] is less than 0.01 µM.
The same measure, in the same setting: the figure for `Cc1n[nH]c2ncc(C(=O)N3CCCC3c3ccncc3)cc12` (stereo not shown) [compound 32, (3-Methyl-1H-pyrazolo[3,4-b]pyridin-5-yl)-(2-pyridin-4-yl-pyrrolidin-1-yl)-methanone] is 0.1 to 1 µM; for `CSc1ccccc1[C@@H]1CCCN1C(=O)c1cnc2[nH]nc(C)c2c1` [compound 33, (3-Methyl-1H-pyrazolo[3,4-b]pyridin-5-yl)-[(S)-2-(2-methylsulfanyl-phenyl)-pyrrolidin-1-yl]-methanone] it is 0.1 to 1 µM; for `CSc1ccccc1[C@H]1CCCN1C(=O)c1cnc2[nH]nc(C)c2c1` [compound 34, (3-Methyl-1H-pyrazolo[3,4-b]pyridin-5-yl)-[(R)-2-(2-methylsulfanyl-phenyl)-pyrrolidin-1-yl]-methanone] it is 0.1 to 1 µM.
With `Cc1n[nH]c2ncc(C(=O)N3CCC[C@H]3c3ccccc3Cl)cc12` [compound 36, [(S)-2-(2-Chloro-phenyl)-pyrrolidin-1-yl]-(3-methyl-1H-pyrazolo[3,4-b]pyridin-5-yl)-methanone], the IC50 (read-out: IC50) was in the range of 0.01 to 0.1 µM.
Same read-out and setting: the figure for `Cc1n[nH]c2ncc(C(=O)N3CCC[C@@H]3c3ccccc3Cl)cc12` [compound 37, [(R)-2-(2-Chloro-phenyl)-pyrrolidin-1-yl]-(3-methyl-1H-pyrazolo[3,4-b]pyridin-5-yl)-methanone] is 0.1 to 1 µM; for `Cc1n[nH]c2ncc(C(=O)N3CCC[C@@H]3c3ccccc3)cc12` [compound 38, (3-Methyl-1H-pyrazolo[3,4-b]pyridin-5-yl)-((R)-2-phenyl-pyrrolidin-1-yl)-methanone] it is 0.1 to 1 µM.
Turning to `Cc1n[nH]c2ncc(C(=O)N3CCC[C@H]3c3ccccc3)cc12` [compound 39, (3-Methyl-1H-pyrazolo[3,4-b]pyridin-5-yl)-((S)-2-phenyl-pyrrolidin-1-yl)-methanone], the IC50 (read-out: IC50) is less than 0.01 µM.
Same read-out and setting: the figure for `Cc1n[nH]c2ncc(C(=O)N3CC[C@H](c4ccccc4)C3)cc12` [compound 40, (3-Methyl-1H-pyrazolo[3,4-b]pyridin-5-yl)-((R)-3-phenyl-pyrrolidin-1-yl)-methanone] is 0.1 to 1 µM.
On to `Cc1n[nH]c2ncc(C(=O)N3CC[C@@H](c4ccccc4)C3)cc12` [compound 41, (3-Methyl-1H-pyrazolo[3,4-b]pyridin-5-yl)-((S)-3-phenyl-pyrrolidin-1-yl)-methanone], for which the IC50 (read-out: IC50) was in the range of 0.01 to 0.1 µM.
Same read-out and setting: the figure for `Cc1n[nH]c2ncc(C(=O)N3CCC[C@H]3c3ccc(F)cc3)cc12` [compound 43, [(S)-2-(4-Fluoro-phenyl)-pyrrolidin-1-yl]-(3-methyl-1H-pyrazolo[3,4-b]pyridin-5-yl)-methanone] is less than 0.01 µM; for `Cc1n[nH]c2ncc(C(=O)N3CCC[C@@H]3c3ccc(F)cc3)cc12` [compound 44, [(R)-2-(4-Fluoro-phenyl)-pyrrolidin-1-yl]-(3-methyl-1H-pyrazolo[3,4-b]pyridin-5-yl)-methanone] it is 0.1 to 1 µM.
On the same count and under the same terms, with `Cc1n[nH]c2ncc(C(=O)N3CCC[C@@H]3c3cccc(Cl)c3)cc12` [compound 45, [(r)-2-(3-Chloro-phenyl)-pyrrolidin-1-yl]-(3-methyl-1H-pyrazolo[3,4-b]pyridin-5-yl)-methanone] the figure was 0.1 to 1 µM; with `Cc1n[nH]c2ncc(C(=O)N3CCC[C@H]3c3cccc(Cl)c3)cc12` [compound 46, [(S)-2-(3-Chloro-phenyl)-pyrrolidin-1-yl]-(3-methyl-1H-pyrazolo[3,4-b]pyridin-5-yl)-methanone], 0.01 to 0.1 µM.
`Cc1n[nH]c2ccc(C(=O)N3CCC[C@@H]3c3ccc(Cl)cc3)cc12` [compound 47, [(R)-2-(4-Chloro-phenyl)-pyrrolidin-1-yl]-(3-methyl-1H-indazol-5-yl)-methanone] had a half-maximal inhibitory concentration (IC50) (IC50 [μM]) of 0.1 to 1 µM.
Still for that read-out and setting: the figure for `Cc1n[nH]c2ccc(C(=O)N3CCC[C@H]3c3ccc(Cl)cc3)cc12` [compound 48, [(S)-2-(4-Chloro-phenyl)-pyrrolidin-1-yl]-(3-methyl-1H-indazol-5-yl)-methanone] is less than 0.01 µM.
On to `Cc1n[nH]c2ccc(C(=O)N3CCC[C@H]3c3ccc(Br)cc3)cc12` [compound 49, [(S)-2-(4-Bromo-phenyl)-pyrrolidin-1-yl]-(3-methyl-1H-indazol-5-yl)-methanone], for which, under “read-out: IC50”, the IC50 was less than 0.01 µM.
Same read-out and setting: with `Cc1n[nH]c2ccc(C(=O)N3CCC[C@@H]3c3ccc(Br)cc3)cc12` [compound 50, [(R)-2-(4-Bromo-phenyl)-pyrrolidin-1-yl]-(3-methyl-1H-indazol-5-yl)-methanone] the figure was 0.1 to 1 µM.
Consider `Cc1n[nH]c2ccc(C(=O)N3CCC[C@H]3c3ccc(Cl)cc3)nc12` [compound 52, [(S)-2-(4-Chloro-phenyl)-pyrrolidin-1-yl]-(3-methyl-1H-pyrazolo[4,3-b]pyridin-5-yl)-methanone], for which the IC50 (IC50 [μM]) was less than 0.01 µM.
Turning to `Cc1n[nH]c2ccc(C(=O)N3CCC[C@@H]3c3ccc(Br)cc3)nc12` [compound 53, [(R)-2-(4-Bromo-phenyl)-pyrrolidin-1-yl]-(3-methyl-1H-pyrazolo[4,3-b]pyridin-5-yl)-methanone], the IC50 (read-out: IC50) lay within 0.1 to 1 µM.
Same read-out and setting: with `Cc1n[nH]c2ccc(C(=O)N3CCC[C@H]3c3ccc(Br)cc3)nc12` [compound 54, [(S)-2-(4-Bromo-phenyl)-pyrrolidin-1-yl]-(3-methyl-1H-pyrazolo[4,3-b]pyridin-5-yl)-methanone] the figure was less than 0.01 µM; with `Cc1n[nH]c2ncc(C(=O)N3CCC3c3ccc(Cl)cc3)cc12` (stereo not shown) [compound 55, [2-(4-Chloro-phenyl)-azetidin-1-yl]-(3-methyl-1H-pyrazolo[3,4-b]pyridin-5-yl)-methanone], 0.01 to 0.1 µM; with `Cc1n[nH]c2ncc(C(=O)N3CC[C@H]3c3ccc(F)cc3)cc12` [compound 56, [(S)-2-(4-Fluoro-phenyl)-azetidin-1-yl]-(3-methyl-1H-pyrazolo[3,4-b]pyridin-5-yl)-methanone], 0.01 to 0.1 µM.
On the same count and under the same terms, with `Cc1n[nH]c2ncc(C(=O)N3CCCCCC3c3ccc(Cl)cc3)cc12` (stereo not shown) [compound 57, [2-(4-Chloro-phenyl)-azepan-1-yl]-(3-methyl-1H-pyrazolo[3,4-b]pyridin-5-yl)-methanone] the figure was 0.1 to 1 µM; with `Cc1n[nH]c2ncc(C(=O)N3CCCCCC3c3cccc(F)c3)cc12` (stereo not shown) [compound 58, [2-(3-Fluoro-phenyl)-azepan-1-yl]-(3-methyl-1H-pyrazolo[3,4-b]pyridin-5-yl)-methanone], 0.01 to 0.1 µM.
On the same count and under the same terms, the figure for `Cc1n[nH]c2ncc(C(=O)N3CCCCC(c4ccc(Cl)cc4)C3)cc12` (stereo not shown) [compound 59, [3-(4-Chloro-phenyl)-azepan-1-yl]-(3-methyl-1H-pyrazolo[3,4-b]pyridin-5-yl)-methanone] is 0.01 to 0.1 µM.
